Source: patent publication US10100083B2, “Leukemia stem cell targeting ligands and methods of use” (The Regents of the University of California, priority 2011, dated 2018)
Positions of bridges follow the written chain, without caps; N, C: chain ends. No end group written: not given here.

What was measured:
[1] = Balb/c mice, follow-up for up to 10 days
in vivo = conditions: Balb/c, mouse
[2] = test system: PBMC, parental A549, K562 or other cell lines; assay: Flow cytometry binding of biotinylated peptide to PBMC, parental and other cell lines (binding specificity)
Procedure: (§1) One peptide, CLL1-L1, with the sequence of […] (SEQ ID NO: 17) was synthesized for further analysis. To determine the binding specificity, cell lines purchased from the American Type Culture Collection (ATCC), such as PC3N (Prostate), HepG2 (Liver), Skov-3 (Ovarian), 5637 (Bladder), HCT-116 (Colon), RPMI8226 (Myeloma), A549 (Lung), K562 (Leukemia), A549 and K562 cells, both expressing CLL1, were incubated with CLL1-L1 conjugated to biotin and probed with streptavidin-phycoerythrin (PE) (excitation 480 nm, emission 578 nm) (FIG. 1D). A bladder cancer-specific ligand, PLZ4, conjugated to biotin was used as the negative control.
After panning, a total of 36 phage clones were sequenced. After alignment, two consensus sequences were identified: CXLR(S/T)AAVC (SEQ ID NO: 34) and CXLRSSGPC (SEQ ID NO: 24) (Table 1), in which “X” represents several amino acids that can be replaceable. Serine (S) and threonine (T) belong to the same hydrophilic class of amino acids with only one methyl group difference. Of these two major sequences, one common motif exists: “LR(S/T)”. To confirm that these ligands indeed bind to CLL1, A549 cells were transfected with a CCL1-RFP expression vector (FIG. 1B panel a) or RFP (FIG. 1B panel b, the control). Expression of CLL1-RFP or RFP could be visualized by the appearance of red fluorescence. For subsequent in depth characterization, we selected the peptide […] (SEQ ID NO: 17) instead of […] (SEQ ID NO: 23) because aspartic acid (D) is more hydrophilic than proline (P), which makes the peptide more water soluble and easier to synthesize and manipulate. A549 cells expressing CCL1-RFP or RFP alone were incubated with phage displaying the […] (SEQ ID NO: 17) peptide, and probed with anti-M13 monoclonal antibody-FITC conjugate. […] This peptide is named CLL1-L1 and was used for all subsequent experiments. Flow cytometry studies were also performed to determine cell binding. CLL1-L1 was conjugated to biotin through the polyethylene glycol (PEG) linker. Cells were incubated with biotinylated CLL1-L1 and probed with streptavidin-PE. […]

CLL1 [3] = assay: Flow cytometry binding of biotinylated peptide to cells expressing CLL1
Procedure: as §1
Target sequence in this assay (Q5QGZ9 44-265 limits assumed): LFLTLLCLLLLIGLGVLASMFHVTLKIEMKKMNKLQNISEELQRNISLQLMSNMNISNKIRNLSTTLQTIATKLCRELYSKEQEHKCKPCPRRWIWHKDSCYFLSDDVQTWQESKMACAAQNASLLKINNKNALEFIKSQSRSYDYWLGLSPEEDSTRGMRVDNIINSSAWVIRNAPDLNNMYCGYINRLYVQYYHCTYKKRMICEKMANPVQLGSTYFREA
After panning, a total of 36 phage clones were sequenced. After alignment, two consensus sequences were identified: CXLR(S/T)AAVC (SEQ ID NO: 34) and CXLRSSGPC (SEQ ID NO: 24) (Table 1), in which “X” represents several amino acids that can be replaceable. Serine (S) and threonine (T) belong to the same hydrophilic class of amino acids with only one methyl group difference. Of these two major sequences, one common motif exists: “LR(S/T)”. To confirm that these ligands indeed bind to CLL1, A549 cells were transfected with a CCL1-RFP expression vector (FIG. 1B panel a) or RFP (FIG. 1B panel b, the control). Expression of CLL1-RFP or RFP could be visualized by the appearance of red fluorescence. For subsequent in depth characterization, we selected the peptide […] […]

CLL1 [4] = assay: Binding of phage displaying the peptide to A549 cells expressing CLL1-RFP (anti-M13 antibody-FITC); conditions: anti-M13 monoclonal antibody-FITC
Procedure: (§2) FIGS. 1A-D illustrate identification of peptides that target CLL1. A. Panning strategy to identify CLL1-targeting peptides. Before each round of panning, the C7C phage peptide display library was subtracted with various cells to remove phage that could bind to those confounding cell types. B. Binding of phage to cells expressing CLL1. A549 cells were transfected with CLL1-RFP (a) or RFP (b, control), incubated with phage expressing the […] (SEQ ID NO: 17)peptide, and probed with anti-M13 phage antibody conjugated with FITC. Binding of phage to A549 cells expressing CLL1-RFP (c), but not to A549 cells expressing RFP (d) was observed. C. Binding of the […] (SEQ ID NO: 17)peptide to CLL1. Biotinylated […] (SEQ ID NO: 17) peptide was synthesized and used to probe PBMC, A549 transfected with vector alone, and A549 cells expressing CLL1. […] Upper panel: cells were probed with streptavidin (SA)-FITC. Lower panels: cells were probed with CLL1-targeting peptide and SA-FITC. D. Binding specificity of the […] (SEQ ID NO: 17)peptide. Cells of various origins were incubated with the biotinylated CLL1-targeting peptide or a bladder cancer-specific peptide, named PLZ4 as a negative control, and probed with SA-PE.
(§3) After panning, a total of 36 phage clones were sequenced. […] Expression of CLL1-RFP or RFP could be visualized by the appearance of red fluorescence. […]
Target sequence in this assay (Q5QGZ9 65-265 limits assumed): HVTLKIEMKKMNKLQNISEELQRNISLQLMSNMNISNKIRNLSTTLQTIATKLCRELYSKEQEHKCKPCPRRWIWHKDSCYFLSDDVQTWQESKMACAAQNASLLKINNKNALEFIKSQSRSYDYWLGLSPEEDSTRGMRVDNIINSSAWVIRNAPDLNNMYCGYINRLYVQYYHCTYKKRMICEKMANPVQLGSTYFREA

[5] = test system: A549 cells expressing RFP; assay: Binding of phage displaying the peptide to control A549 cells expressing RFP
Procedure: as §2, §3

[6] = streptavidin-PE, flow cytometry (FIG. 1C)

Compound	Weight changes [1]	MTD (in vivo)	Binding to parental A549, K562 or other cell lines ([2]; SA-PE (FIG. 1D))	Binding to A549 control cells [2, 6]	Binding to PBMC [2, 6]	Binding to A549 and K562 cells that expressed recombinant CLL1 (CLL1 [3]; SA-PE (FIG. 1D))	Binding to A549 cells expressing CLL1 (CLL1 [3]; streptavidin probe, flow cytometry (FIG. 1C))	Phage detected on cell surface (CLL1 [4])	Phage detected on cell surface [5]
COc1cccc2c1C(=O)c1c(O)c3c(c(O)c1C2=O)C[C@@](O)(C(C)=O)C[C@@H]3O[C@H]1C[C@H](N)[C@H](O)[C@H](C)O1 [free DNR, daunorubicin]	no significant weight changes	10 mg/kg	–	–	–	–	–	–	–
CDLRSAAVC (disulfide 1-9 (inferred)) [CLL1-L1, CLL1-targeting peptide from C7C phage display library, cyclized via the two cysteines]	–	–	not	No significant binding	No significant binding	bound	significant binding	detected on the surface	not on cells expressing RFP
